Results taken from patent publication US12186327B2, “Oral allopregnanolone compositions and methods of use” (Lipocine Inc., priority 2022, dated 2025).
In brackets after ≈: the same amount, converted by molar mass. Read-outs that look alike come from different tables or passages of the source.

How the values were obtained:
a1b2g2 GABAA receptor = a1b2g2 GABAA receptor (Homo sapiens, UniProt P14867+P47870); details: synaptic GABAA receptor; cited from earlier work
[1] = once daily 30 mg capsule, 14 day treatment; cited from earlier work
[2] = 30 mg capsule, cited from earlier work
[3] = Allopregnanolone solubility in SBE-β-CD solution; format: physicochemical; details: for solubility: aqueous with cosolvent or surfactant or cyclodextrin
Method: The solubilized fraction of allopregnanolone began to decline, as observed by precipitation, when allopregnanolone concentration was above 8 mg/ml. The amount of allopregnanolone in the cyclodextrin solution can only be enabled by up to about 0.6% w/w loading amount of the composition fill. Moreover, high cyclodextrin amounts required to solubilize allopregnanolone also present safety concerns. In some aspects, the compositions and dosage forms of this invention can comprise higher allopregnanolone loading amounts (>5 mg/ml or 5 mg/g) than ones formulated in non-encapsulated SBE-β-CD or any cyclodextrin solution composition.

[4] = in vivo; cited from earlier work
[5] = oral daily doses of 16-24 g for 14 days, human volunteers; cited from earlier work

Sequence of a1b2g2 GABAA receptor (P14867 28-456): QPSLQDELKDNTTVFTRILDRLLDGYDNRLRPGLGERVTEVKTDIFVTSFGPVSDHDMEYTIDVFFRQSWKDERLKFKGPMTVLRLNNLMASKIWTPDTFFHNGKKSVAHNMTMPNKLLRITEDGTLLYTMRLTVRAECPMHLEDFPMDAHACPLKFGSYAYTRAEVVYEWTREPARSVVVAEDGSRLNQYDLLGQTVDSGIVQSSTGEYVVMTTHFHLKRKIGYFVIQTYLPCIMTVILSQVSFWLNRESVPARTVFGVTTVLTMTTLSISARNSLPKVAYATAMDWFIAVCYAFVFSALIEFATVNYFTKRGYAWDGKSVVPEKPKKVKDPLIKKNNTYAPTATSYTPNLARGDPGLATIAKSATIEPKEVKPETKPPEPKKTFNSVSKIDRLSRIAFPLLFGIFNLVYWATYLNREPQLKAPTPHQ
Sequence of a1b2g2 GABAA receptor (P47870 25-512 limits assumed): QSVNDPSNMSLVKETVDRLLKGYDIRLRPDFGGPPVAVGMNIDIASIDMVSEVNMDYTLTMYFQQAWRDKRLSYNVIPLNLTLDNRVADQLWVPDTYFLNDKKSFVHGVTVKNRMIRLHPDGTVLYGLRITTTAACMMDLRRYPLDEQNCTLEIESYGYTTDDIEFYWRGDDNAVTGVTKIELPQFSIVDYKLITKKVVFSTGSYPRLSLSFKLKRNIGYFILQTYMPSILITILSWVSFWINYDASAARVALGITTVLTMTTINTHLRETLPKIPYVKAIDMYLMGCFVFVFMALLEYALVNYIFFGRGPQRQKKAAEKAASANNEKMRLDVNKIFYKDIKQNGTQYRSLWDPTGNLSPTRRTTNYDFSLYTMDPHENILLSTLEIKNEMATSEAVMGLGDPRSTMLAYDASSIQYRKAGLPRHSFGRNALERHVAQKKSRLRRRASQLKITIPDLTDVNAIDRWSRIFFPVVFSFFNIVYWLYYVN
Sequence of a1b2g2 GABAA receptor (P18507 40-475 partner): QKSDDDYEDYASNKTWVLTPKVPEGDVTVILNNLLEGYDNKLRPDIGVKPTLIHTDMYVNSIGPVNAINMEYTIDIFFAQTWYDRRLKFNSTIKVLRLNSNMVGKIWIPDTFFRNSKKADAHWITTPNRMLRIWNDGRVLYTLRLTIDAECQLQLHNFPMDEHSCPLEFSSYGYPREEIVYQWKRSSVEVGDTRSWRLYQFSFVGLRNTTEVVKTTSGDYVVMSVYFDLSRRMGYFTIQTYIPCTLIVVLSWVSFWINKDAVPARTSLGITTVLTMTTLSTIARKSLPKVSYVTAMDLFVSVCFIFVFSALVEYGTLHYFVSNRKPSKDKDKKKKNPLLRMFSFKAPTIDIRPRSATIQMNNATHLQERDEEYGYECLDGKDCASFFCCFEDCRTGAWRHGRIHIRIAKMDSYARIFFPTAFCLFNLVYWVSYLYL

In the case of `C[C@@]1(O)CC[C@H]2[C@H](CC[C@@H]3[C@@H]2CC[C@]2(C)[C@@H](C(=O)Cn4cc(C#N)cn4)CC[C@@H]32)C1` [ZURANOLONE], the “less potent than allopregnanolone, based on a1b2g2 Qpatch EC50” value (a1b2g2 GABAA receptor) is given as “about 33%”, the “efficacy in postpartum depression” value [1] is given as “acceptable efficacy” and the Cmax ([2]; single dose with a standard fat meal) is given as “about 64 ng/ml”. The Cmax ([2]; single dose, fasted condition) was “about 23 ng/ml”.
With `CC(=O)[C@H]1CC[C@H]2[C@@H]3CC[C@H]4C[C@H](O)CC[C@]4(C)[C@H]3CC[C@]12C` [allopregnanolone, 3α-hydroxy-5α-pregnan-20-one] the solubility ([3]; cyclodextrin (SBE-β-CD) solution, read-out: allopregnanolone concentration above which the solubilized fraction declined (precipitation)) was > 8000 µg/mL, the solubility ([3]; in 24% w/v non-encapsulated SBE-β-CD solution, read-out: allopregnanolone solubility) was ~6000 µg/mL (≈ 18.8 mM) and the “loading amount of the composition fill enabled in cyclodextrin solution” value ([3]; cyclodextrin solution) was “up to 0.6 % w/w”. For the same molecule, the oral bioavailability [4] was “low”.
In the case of hydroxy propyl-β-CD, the digestive problems [5] is listed as “increased incidence of soft stools and diarrhea”.
